Measurements published in patent USRE40594E1, “Inhibitors of the bitter taste response” (Mount Sinai School of Medicine of New York University, priority 1998, dated 2008).
Structures can show the parent of a compound that is named as a salt. Where two headings read alike, the source gives them in different places.

Tested on: bovine taste receptor cell membranes (taste receptors) with transducin
Test: G protein activation assay (trypsin sensitivity): activation of transducin by bitter tastant plus taste membranes
Assay type: biochemical, Bovine (Bos primigenius)
Conditions: for inhibition of taste membrane-dependent activation of transducin by DEN (AMP analogues): DEN 5.0 mM, test compound 5.0 mM, FIG. 2; for inhibition of in vitro activation of transducin (G-protein) by taste membranes plus bitter compounds, summary statement: DEN, QUI and other bitter compounds, concentrations not given
Text: Taste receptor is contacted with gustducin or transducin and tastant, in the presence or absence of test inhibitor, under conditions suitable for activation of the G-protein present. […] In specific non-limiting embodiments, a subunits of transducin or gustducin may be combined with βγ subunits prior to this step, as set forth above. To the reaction mixture comprising taste receptors and gustducin or transducin, test inhibitor and/or bitter tastant may be added, and the resulting solution incubated to permit interaction of the elements.
In preferred embodiments, activation is assessed by a trypsin digestion assay. […] In a specific, non-limiting example, to perform a trypsin digestion assay according to the invention, TPCK-treated trypsin (1:25 trypsin to total protein in the reaction mixture) may be added, and the digestion may be performed at room temperature for about 15 minutes and stopped by adding soybean trypsin inhibitor (6:1 mol/mol inhibitor to trypsin). […] The separated polypeptides may then be transferred by electro-blotter to a poly (vinylidene difluoride) membrane blocked by the addition of 5% BLOTTO [50 mM Tris-HCI, pH 7.4/100 mM NaCl/5% nonfat dry milk], (30 min). G-protein peptides may then be visualized by binding of antibody directed toward transducin or gustducin, followed, for example, by binding of a detectably labeled secondary antibody. If a horseradish peroxidase-labeled secondary antibody is used, binding may be visualized by developing with bicinchoninic acid staining reagents and exposure to x-ray film.
G Protein Activation Assays. Bovine (Bos primigenius) tongues were collected fresh from a local slaughterhouse and transported on ice to the laboratory. Circumvallate papillae were hand dissected, frozen in liquid nitrogen, and stored at −80° C. until use. […] The pelleted membranes were rinsed twice, resuspended in homogenization buffer lacking protease inhibitors, and further homogenized by 20 passages through a 25-gauge needle. Aliquots were either flash frozen or stored on ice until use. […] The separated polypeptides were transferred by electro-blotter to a poly (vinylidene difluoride) membrane, which was blocked by the addition of 5% BLOTTO [50 mM Tris-HCI, pH 7.4/100 mM NaCl/5% nonfat dry milk], (30 min), then transducin peptides were visualized by binding of transducin antiserum and horseradish peroxidase-labeled goat anti-rabbit secondary antibody, followed by developing with bicinchoninic acid staining reagents from Bio-Rad and exposure to x-ray film.
Chemicals. All bitter tastant and buffer chemicals were of the highest purity available and were purchased either from Sigma or Boehringer Mannheim, unless otherwise noted. […] The rabbit polyclonal antitransducin antibody was a kind gift of Mel Simon and John Watson (California Institute of Technology, Pasadena, Calif.).

Compound	inhibition of taste membrane-dependent activation of transducin by DEN (AMP analogues)	inhibition of in vitro activation of transducin (G-protein) by taste membranes plus bitter compounds, summary statement	activation of transducin by the tastant in the presence of taste membranes (tastant itself, no inhibitor)	other results
Nc1ncnc2c1ncn2[C@@H]1O[C@H](CO)[C@@H](OP(=O)(O)O)[C@H]1O [3′AMP, adenosine 3′ monophosphate]	potently inhibited	successfully inhibit		
Nc1ncnc2c1ncn2[C@@H]1O[C@H](C(=O)O)[C@@H](O)[C@H]1O [ACA, adenosine 5′-carboxylate]	not inhibited			inhibition of taste membrane-dependent activation of transducin by DEN (AMP analogues) (listed as adenosine 5′-carboxylate): did not block
Cl.Nc1ncnc2nc[nH]c12 [ADE, adenine hydrochloride]				inhibition of taste membrane-dependent activation of transducin by DEN (AMP analogues) (hydrochloride): not inhibited; inhibition of taste membrane-dependent activation of transducin by DEN (AMP analogues) (listed as adenine, hydrochloride): did not block
Cl.Nc1ncnc2c1ncn2[C@@H]1O[C@H](CO)[C@@H](O)[C@H]1O [ADO, adenosine hydrochloride]				inhibition of taste membrane-dependent activation of transducin by DEN (AMP analogues) (hydrochloride): not inhibited; inhibition of taste membrane-dependent activation of transducin by DEN (AMP analogues) (listed as adenosine, hydrochloride): did not block
Nc1ncnc2c1ncn2[C@@H]1O[C@H](COP(=O)(O)OP(=O)(O)O)[C@@H](O)[C@H]1O [ADP, adenosine 5′ diphosphate]	potently inhibited	successfully inhibit		
Nc1ncnc2c1ncn2[C@@H]1O[C@H](COS(=O)(=O)O)[C@@H](O)[C@H]1O [AMS, adenosine 5′-monosulfate]	not inhibited			inhibition of taste membrane-dependent activation of transducin by DEN (AMP analogues) (listed as adenosine 5′-monosulfate): did not block
Nc1ncnc2c1ncn2[C@@H]1O[C@H](COC(=O)CCC(=O)O)[C@@H](O)[C@H]1O [ASU, adenosine 5′-succinate]	inhibited	successfully inhibit		inhibition of taste membrane-dependent activation of transducin by DEN (AMP analogues) (listed as adenosinc 5′-succinate): potently inhibited
Nc1ncnc2c1ncn2[C@@H]1O[C@H](COP(=O)(O)OP(=O)(O)OP(=O)(O)O)[C@@H](O)[C@H]1O [ATP, adenosine 5′ triphosphate]	potently inhibited	successfully inhibit		
Cn1c(=O)c2c(ncn2C)n(C)c1=O [CAF, caffeine, reference compound]	not inhibited			inhibition of taste membrane-dependent activation of transducin by DEN (AMP analogues) (listed as caffeine): did not block
Nc1ccn([C@@H]2O[C@H](COP(=O)(O)O)[C@@H](O)[C@H]2O)c(=O)n1 [CMP, 5′-cytidylic acid]	inhibited	successfully inhibit		inhibition of taste membrane-dependent activation of transducin by DEN (AMP analogues) (listed as 5′-Cytidylic acid): partially inhibited
CC[N+](CC)(CC(=O)Nc1c(C)cccc1C)Cc1ccccc1 [DEN, denatonium benzoate, reference compound]			activated transducin	
C=C[C@H]1C[N@@]2CC[C@H]1C[C@H]2[C@H](O)c1ccnc2ccc(OC)cc12 [QUI, quinine hydrochloride, reference compound]			activated transducin	
Cn1c(=O)c2[nH]cnc2n(C)c1=O [THE, theophylline, reference compound]	not inhibited			inhibition of taste membrane-dependent activation of transducin by DEN (AMP analogues) (listed as theophylline): did not block
Cc1cn([C@H]2C[C@H](O)[C@@H](COP(=O)(O)O)O2)c(=O)[nH]c1=O [TMP, thymidine 5′-monophosphate]	inhibited	successfully inhibit		inhibition of taste membrane-dependent activation of transducin by DEN (AMP analogues) (listed as thymidine 5′-monophosphate): potently inhibited
Nc1ncnc2c1ncn2[C@@H]1O[C@H](CO)[C@@H](O)[C@H]1OP(=O)(O)O [adenosine 2′-monophosphate]		successfully inhibit		inhibition of DEN/taste receptor activation of transducin (concentration not given, not shown in FIG. 2): potently inhibited
CN1[C@@H]2CC[C@H]1C[C@@H](OC(=O)C(CO)c1ccccc1)C2 (stereo partly shown) [atropine, atropine hydrochloride, reference compound]			activated transducin	
O=C(O)/C=C/c1ccc(O)c(O)c1 [caffeic acid, reference compound]			activated transducin	
C[C@@H]1O[C@@H](O[C@H]2[C@H](Oc3cc(O)c4c(c3)O[C@H](c3ccc(O)cc3)CC4=O)O[C@H](CO)[C@@H](O)[C@@H]2O)[C@H](O)[C@H](O)[C@H]1O [naringin, reference compound]			activated transducin	
CCN(CC)CCCC(C)Nc1c2ccc(Cl)cc2nc2ccc(OC)cc12 (stereo not shown) [quinacrine, reference compound]			activated transducin	
C1CCN2C[C@@H]3C[C@@H](CN4CCCC[C@@H]34)[C@H]2C1 [sparteine, reference compound]			activated transducin	
nicotine hemisulfate [reference compound]				activation of transducin by the tastant in the presence of taste membranes: activated transducin
